These results are taken from US6534489B1, “Organophosphorus compounds and the use thereof” (Jomaa Pharmaka GmbH, priority 1998, dated 2003).

One assay concerns Plasmodium falciparum. The assay is described as follows: Antimalarial activity: in vitro Plasmodium falciparum culture, [3H]-hypoxanthine incorporation. The format is cell-based. The conditions noted are these: Example 11, asynchronous blood culture, 48 h + 24 h with [3H]-hypoxanthine, dilution series 100 to 0.14 μmol l−1, IC50 determined by extrapolating, read-out: IC 50 values, Plasmodium falciparum. Here is the method: The antimalarial activity of compounds 1 to 5 was determined using in vitro cultures of the causative organism of malaria, Plasmodium falciparum. 200 μl of an asynchronous Plasmodium falciparum culture with a 0.4% blood parasite content and a haematocrit of 2% were loaded into each of the wells of a 96 well microtitre plate. A serial dilution series of the compounds was then prepared in steps of three between concentrations of 100 and 0.14 μmol 1^−1. The plates are incubated at 37° C., 3% CO2 and 5% O2 over a period of 48 hours. 30 μl of medium supplemented with 27 ηCi ml^−1 of [^3H]-hypoxanthine were then added to each well. After 24 hours' incubation, the parasites were harvested by filtration through glass fibre filters and the incorporated radioactivity was measured. Inhibition of parasite growth was measured as the percentage inhibition of tritium incorporation relative to a comparison without the substance. The median inhibitory concentration (IC50) of the substance was determined by extrapolating the values.

The test system of a further assay is E. coli K12. The assay is described as follows: Antibacterial action: growth inhibition of E. coli K12 in LB medium (turbidity). The format is cell-based. As to conditions: Escherichia coli, Example 10, overnight at 37° C., dilution series 500, 100, 50, 10 and 0 μmol l−1, growth assessed by turbidity, read-out: IC 50 values, E. coli. Here is the method:
Antibacterial action of the above-stated compounds 1 to 5
A dilution series comprising the concentrations 500, 100, 50, 10 and 0 μmol 1^−1 of the individual compounds 1 to 5 in LB medium is introduced into 5 culture microtubes in a volume of 0.5 ml. Each of the microtubes was inoculated with 10 μl of an overnight culture of E. coli K12 and shaken overnight at 37° C. Bacterial growth was assessed on the basis of the turbidity of the medium.

Read-outs that look alike come from different tables or passages of the source.

`CC(=O)N(O)C(CCc1ccccc1)CCP(=O)(O)O` (stereo not shown) [Compound 1, 3-N-Acetyl-3-N-(hydroxylamino)-5-phenylpentylphosphonic acid]: the IC50 in the assay on Plasmodium falciparum was 215 nM.

Consider “3-acetyl-3-(N-hydroxylamino)-3-methyl-[2-(3-pyridyl)ethyl]propylphosphonic acid [Compound 5]”, for which the IC50 with Plasmodium falciparum was 183 nM. For `CC(=O)C(C)(NO)C(CCc1ccccc1)CP(=O)(O)O` (stereo not shown) [Compound 3, 3-acetyl-3-(N-hydroxylamino)-3-methyl-2-(2-phenylethyl)propylphosphonic acid], the values for the IC50 in the assay on E. coli K12 and in the assay on Plasmodium falciparum (Plasmodium falciparum) were 762000 nM and 405 nM, respectively.

In the case of `CC(=O)N(O)C(CCC1CCCCC1)CCP(=O)(O)O` (stereo not shown) [Compound 2, 3-N-Acetyl-3-N-(hydroxylamino)-5-cyclohexyl-pentylphosphonic acid], the IC50 with Plasmodium falciparum was 157 nM. In the case of `CC(=O)C(C)(NO)C(CCc1ccccn1)CP(=O)(O)O` (stereo not shown) [Compound 4, 3-acetyl-3-(N-hydroxylamino)-3-methyl-2-[2-(2-pyridyl)ethyl]propylphosphonic acid], the IC50 is 736000 nM in the assay with E. coli K12 and 375 nM in the assay on Plasmodium falciparum (Plasmodium falciparum).
